Measured values taken from ChEMBL document CHEMBL1201862, “PubChem BioAssay data set” (2004).
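Values below derive from 48-hour exposures of cells grown in 96-well plates, with endpoints linearly interpolated between the two concentrations bracketing the appropriate inhibition level. Abbreviation: GI50, concentration required for 50% inhibition of growth.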 Active and inactive are the calls of the source. No stated cut-off is given here; in the data, active = GI50 up to about 1.1 µM and inactive = higher.

Assays:
Test in all cases: DTP human tumour cell line panel, 48 h
SF-539 = system: SF-539
SF-268 = system: SF-268
SNB-75 = system: SNB-75
SK-MEL-5 = system: SK-MEL-5
OVCAR-3 = system: OVCAR-3
NCI-H23 = system: NCI-H23
U-251 = system: U-251
K562 = system: K562
RXF 393 = system: RXF 393
UACC-62 = system: UACC-62
HCC 2998 = system: HCC 2998
M14 = system: M14
Malme-3M = system: Malme-3M
SNB-78 = system: SNB-78
HL-60 = system: HL-60
786-0 = system: 786-0
A549 = system: A549
CAKI-1 = system: CAKI-1
HOP-62 = system: HOP-62
TK-10 = system: TK-10
HT-29 = system: HT-29
OVCAR-5 = system: OVCAR-5
NCI-H226 = system: NCI-H226
SNB-19 = system: SNB-19
SN12C = system: SN12C
KM12 = system: KM12
SF-295 = system: SF-295
RPMI-8226 = system: RPMI-8226
NCI-H460 = system: NCI-H460
HOP-18 = system: HOP-18
SW-620 = system: SW-620
COLO 205 = system: COLO 205
CCRF-CEM = system: CCRF-CEM
IGROV-1 = system: IGROV-1
ACHN = system: ACHN
OVCAR-4 = system: OVCAR-4
NCI-H522 = system: NCI-H522
EKVX = system: EKVX
A498 = system: A498
HCT-15 = system: HCT-15
UO-31 = system: UO-31
SK-OV-3 = system: SK-OV-3
LOX IMVI = system: LOX IMVI
HCT-116 = system: HCT-116
LXFL 529 = system: LXFL 529
UACC-257 = system: UACC-257
HOP-92 = system: HOP-92
XF498 = system: XF498
KM-20L2 = system: KM-20L2
OVCAR-8 = system: OVCAR-8
SK-MEL-2 = system: SK-MEL-2
M19-MEL = system: M19-MEL
SK-MEL-28 = system: SK-MEL-28
MOLT-4 = system: MOLT-4
DMS-273 = system: DMS-273
DLD-1 = system: DLD-1
SR = system: SR
DMS-114 = system: DMS-114

CC(=O)C1C(=O)C(=O)N(c2ccccc2C(C)C)C1=O (centres undefined)
GI50 (SF-539): > 100 µM (inactive) | GI50 (SF-268): > 100 µM (inactive) | GI50 (SNB-75): > 100 µM (inactive) | GI50 (SK-MEL-5): > 100 µM (inactive) | GI50 (OVCAR-3): > 100 µM (inactive) | GI50 (NCI-H23): > 100 µM (inactive) | GI50 (U-251): > 100 µM (inactive) | GI50 (K562): > 100 µM (inactive) | GI50 (RXF 393): > 100 µM (inactive) | GI50 (UACC-62): > 100 µM (inactive) | GI50 (HCC 2998): > 100 µM (inactive) | GI50 (M14): > 100 µM (inactive) | GI50 (Malme-3M): > 100 µM (inactive) | GI50 (SNB-78): > 100 µM (inactive) | GI50 (HL-60): > 100 µM (inactive) | GI50 (786-0): > 100 µM (inactive) | GI50 (A549): > 100 µM (inactive) | GI50 (CAKI-1): > 100 µM (inactive) | GI50 (HOP-62): > 100 µM (inactive) | GI50 (TK-10): > 100 µM (inactive) | GI50 (HT-29): > 100 µM (inactive) | GI50 (OVCAR-5): > 100 µM (inactive) | GI50 (NCI-H226): > 100 µM (inactive) | GI50 (SNB-19): > 100 µM (inactive) | GI50 (SN12C): > 100 µM (inactive) | GI50 (KM12): > 100 µM (inactive) | GI50 (SF-295): > 100 µM (inactive) | GI50 (RPMI-8226): > 100 µM (inactive) | GI50 (NCI-H460): > 100 µM (inactive) | GI50 (HOP-18): > 100 µM (inactive) | GI50 (SW-620): > 100 µM (inactive) | GI50 (COLO 205): > 100 µM (inactive) | GI50 (CCRF-CEM): > 100 µM (inactive) | GI50 (IGROV-1): > 100 µM (inactive) | GI50 (ACHN): > 100 µM (inactive) | GI50 (OVCAR-4): > 100 µM (inactive) | GI50 (NCI-H522): > 100 µM (inactive) | GI50 (EKVX): > 100 µM (inactive) | GI50 (A498): > 100 µM (inactive) | GI50 (HCT-15): > 100 µM | GI50 (UO-31): > 100 µM (inactive) | GI50 (SK-OV-3): > 100 µM (inactive) | GI50 (LOX IMVI): > 100 µM (inactive) | GI50 (HCT-116): > 100 µM (inactive) | GI50 (LXFL 529): > 100 µM (inactive) | GI50 (UACC-257): > 100 µM (inactive) | GI50 (HOP-92): > 100 µM (inactive) | GI50 (XF498): > 100 µM (inactive) | GI50 (KM-20L2): > 100 µM (inactive) | GI50 (OVCAR-8): > 100 µM (inactive) | GI50 (SK-MEL-2): > 100 µM (inactive) | GI50 (M19-MEL): > 100 µM (inactive) | GI50 (SK-MEL-28): > 100 µM (inactive) | GI50 (MOLT-4): > 100 µM (inactive)

COc1ccc2c3c([nH]c2c1CC=C(C)C)C(=O)C=C(C)C3=O
GI50 (SF-539): > 25 µM (inactive) | GI50 (SF-268): 12.3 µM (inactive) | GI50 (SNB-75): 14.4 µM (inactive) | GI50 (SK-MEL-5): > 25 µM (inactive) | GI50 (OVCAR-3): > 25 µM (inactive) | GI50 (NCI-H23): > 25 µM (inactive) | GI50 (U-251): > 25 µM (inactive) | GI50 (K562): > 25 µM (inactive) | GI50 (RXF 393): > 25 µM (inactive) | GI50 (DMS-273): > 25 µM (inactive) | GI50 (UACC-62): > 25 µM (inactive) | GI50 (HCC 2998): > 25 µM (inactive) | GI50 (DLD-1): > 25 µM (inactive) | GI50 (M14): > 25 µM (inactive) | GI50 (Malme-3M): 16.1 µM (inactive) | GI50 (HL-60): > 25 µM (inactive) | GI50 (786-0): > 25 µM (inactive) | GI50 (A549): > 25 µM (inactive) | GI50 (CAKI-1): > 25 µM (inactive) | GI50 (HOP-62): > 25 µM (inactive) | GI50 (TK-10): > 25 µM (inactive) | GI50 (HT-29): > 25 µM (inactive) | GI50 (OVCAR-5): > 25 µM (inactive) | GI50 (NCI-H226): > 25 µM (inactive) | GI50 (SNB-19): > 25 µM (inactive) | GI50 (SN12C): > 25 µM (inactive) | GI50 (KM12): > 25 µM (inactive) | GI50 (SF-295): > 25 µM (inactive) | GI50 (RPMI-8226): > 25 µM (inactive) | GI50 (NCI-H460): > 25 µM (inactive) | GI50 (HOP-18): 12.1 µM (inactive) | GI50 (SW-620): > 25 µM (inactive) | GI50 (COLO 205): > 25 µM (inactive) | GI50 (CCRF-CEM): 8.36 µM (inactive) | GI50 (IGROV-1): > 25 µM (inactive) | GI50 (ACHN): > 25 µM (inactive) | GI50 (OVCAR-4): 20.4 µM (inactive) | GI50 (NCI-H522): 11.8 µM (inactive) | GI50 (EKVX): > 25 µM (inactive) | GI50 (SR): 24.5 µM (inactive) | GI50 (HCT-15): > 25 µM | GI50 (UO-31): > 25 µM (inactive) | GI50 (SK-OV-3): > 25 µM (inactive) | GI50 (HCT-116): 16.2 µM (inactive) | GI50 (LXFL 529): 15.8 µM (inactive) | GI50 (UACC-257): > 25 µM (inactive) | GI50 (HOP-92): > 25 µM (inactive) | GI50 (XF498): > 25 µM (inactive) | GI50 (KM-20L2): > 25 µM (inactive) | GI50 (DMS-114): 18.3 µM (inactive) | GI50 (OVCAR-8): > 25 µM (inactive) | GI50 (SK-MEL-2): > 25 µM (inactive) | GI50 (M19-MEL): 11.6 µM (inactive) | GI50 (SK-MEL-28): > 25 µM (inactive) | GI50 (MOLT-4): 18.5 µM (inactive)

Nc1nc(Cl)cc(NCCCCCCCCCCCCNc2cc(Cl)nc(N)n2)n1
GI50 (SF-539): 15.2 µM (inactive) | GI50 (SF-268): 28.2 µM (inactive) | GI50 (SNB-75): 8.53 µM (inactive) | GI50 (SK-MEL-5): 0.0861 µM (active) | GI50 (OVCAR-3): 11.1 µM (inactive) | GI50 (NCI-H23): 0.0136 µM (active) | GI50 (U-251): 0.345 µM (active) | GI50 (K562): 0.0655 µM (active) | GI50 (RXF 393): 9.75 µM (inactive) | GI50 (DMS-273): 7.57 µM (inactive) | GI50 (UACC-62): 6.84 µM (inactive) | GI50 (HCC 2998): 38.5 µM (inactive) | GI50 (DLD-1): 4.61 µM (inactive) | GI50 (M14): 38 µM (inactive) | GI50 (Malme-3M): 24.4 µM (inactive) | GI50 (HL-60): 1.14 µM (inactive) | GI50 (A549): 7.45 µM (inactive) | GI50 (HOP-62): 12.2 µM (inactive) | GI50 (TK-10): 23.6 µM (inactive) | GI50 (HT-29): 10.5 µM (inactive) | GI50 (NCI-H226): 15 µM (inactive) | GI50 (SN12C): 32.7 µM (inactive) | GI50 (KM12): 83 µM (inactive) | GI50 (SF-295): 1.41 µM (inactive) | GI50 (RPMI-8226): > 100 µM (inactive) | GI50 (NCI-H460): 2.5 µM (inactive) | GI50 (HOP-18): > 100 µM (inactive) | GI50 (SW-620): 28.8 µM (inactive) | GI50 (COLO 205): 19.9 µM (inactive) | GI50 (CCRF-CEM): 1.69 µM (inactive) | GI50 (IGROV-1): 15.8 µM (inactive) | GI50 (OVCAR-4): 4.36 µM (inactive) | GI50 (EKVX): 12.3 µM (inactive) | GI50 (A498): 12.9 µM (inactive) | GI50 (SR): 1.99 µM (inactive) | GI50 (HCT-15): 7.93 µM | GI50 (UO-31): 31.7 µM (inactive) | GI50 (SK-OV-3): 32.4 µM (inactive) | GI50 (LOX IMVI): 0.0869 µM (active) | GI50 (HCT-116): 0.832 µM (active) | GI50 (LXFL 529): 0.769 µM (active) | GI50 (UACC-257): 0.515 µM (active) | GI50 (HOP-92): 2.87 µM (inactive) | GI50 (XF498): 0.386 µM (active) | GI50 (KM-20L2): 49.1 µM (inactive) | GI50 (OVCAR-8): 10.1 µM (inactive) | GI50 (SK-MEL-2): 34.4 µM (inactive) | GI50 (M19-MEL): 11.8 µM (inactive) | GI50 (SK-MEL-28): 7.67 µM (inactive) | GI50 (MOLT-4): 1.33 µM (inactive)
